Measured values: article PMC6375640, “Genomic insights into neonicotinoid sensitivity in the solitary bee Osmia bicornis” (PLoS Genetics, 2019)
In brackets after ≈: the same amount, converted by molar mass.

Experiments:
O. bicornis [1] = assay: Acute contact toxicity bioassay; type: in vivo, Osmia bicornis; conditions: for LD50: acute contact, applied to dorsal thorax, thiacloprid limit test 100 μg/bee; for toxicity classification according to U.S. EPA categories: contact exposure
Protocol: O. bicornis cocoons were purchased from Dr Schubert Plant Breeding (Landsberg, Germany) and stored at 4°C in constant darkness. To trigger emergence cocoons were transferred to an incubator (25°C, 55% RH, L16:D8) with emerged bees fed ab libitum with Biogluc (62% sugar concentration consisting of 37.5% fructose, 34.5% glucose, 25% sucrose, 2% maltose, and 1% oligosaccharides) (Biobest), soaked into a piece of cotton wool inside a plastic dish. Males (which are usually first to emerge) were removed from cages and discarded to reduce any unnecessary stress to the females used in insecticide bioassays.
(§1) Acute contact toxicity bioassays on unmated 2 day old female O. bicornis were conducted following the OECD Honey Bee Test guidelines, with modification where necessary. Bees were anaesthetised with CO2 for 5–10 seconds to allow application of insecticide. 1 μL of technical grade imidacloprid was applied to the dorsal thorax of each bee at concentrations of 0.0001, 0.001, 0.01, 0.1, 1, and 10 μg/μL. No mortality was observed using the same concentrations of thiacloprid so a limit test of 100 μg/bee was performed. Control bees were treated with 1 μL 100% acetone. Three replicates of 10 bees were tested for each concentration. Tested individuals were placed back into cages in the incubator (25°C, 55% RH, L16:D8), with five bees per cage. In piperonyl butoxide (PBO) synergist bioassays, bees were first treated with the maximum sublethal dose (in this case 100 μg/μL) of PBO followed by insecticide one hour later. Synergist bioassays included an additional control group treated only with PBO. Mortality was assessed 48 and 72 hours after application. Probit analysis was used to calculate the LD50 values, slope, and synergism ratio (where relevant) for each insecticide (Genstat v.18 (VSNI 2015)).

O. bicornis cuticle = assay: Cuticular penetration of radiolabelled insecticide (pharmacokinetic study); type: in vivo, Osmia bicornis; conditions: 24 h after application to dorsal thorax
Protocol: Bees were anaesthetised with CO2 for 5–10 seconds to allow application of insecticide. 5,000 ppm of [^14C]imidacloprid or [^14C]thiacloprid was applied to the dorsal thorax of each bee using a Hamilton repeating dispenser. Three replicates of five bees were placed into cages and fed a 50% sucrose solution from vertically hanging 2 ml syringes. Control bees were treated with acetone. Radiolabelled insecticide was rinsed off of each group of bees at set time intervals (0, 2, 4 and 24 hours after application) with acetonitrile water (90:10) three times. The […] bees were then individually combusted at 900°C in an Ox 120c oxidizer (Harvey Instruments Co., USA) followed by liquid scintillation counting of the released ^14CO2 in an alkaline scintillation cocktail (Ultima Gold, PerkinElmer) using a liquid scintillation analyser (Perkin Elmer Tri-Carb 2910 TR). The levels of excreted [^14C]imidacloprid or [^14C]thiacloprid, and/or metabolites, were measured by wiping cages with filter papers dipped in acetone and 0.5 mL aliquots of cuticular rinse or filter papers were added to 3 mL of scintillation fluid cocktail and the radioactivity was quantified by liquid scintillation analysis as above. An unpaired t-test was used to compare the penetration of the two compounds at each time point.

O. bicornis nAChRs = assay: Radioligand competition binding, [3H]imidacloprid displacement from head membrane preparations; set-up: species or system Osmia bicornis; conditions: 576 pM radioligand, 60 min room temperature
Protocol: [^3H]imidacloprid (specific activity 1.406 GBq μmol^−1) displacement studies were conducted using membrane preparations isolated from frozen (−80°C) O. bicornis heads, following previously published protocols. Briefly, bee heads weighing 10 g were homogenized in 200 ml ice-cold 0.1 M potassium phosphate buffer, pH 7.4 containing 95 mM sucrose using a motor-driven Ultra Turrax blender. […] Assays were performed in a 96-well microtitre plate with bonded GF/C filter membrane (Packard UniFilter-96, GF/C) and consisted of 200 μl of homogenate (0.48 mg protein), 25 μl of [^3H]imidacloprid (576 pM) and 25 μl of competing ligand. Ligand concentrations used ranged from 0.001 to 10 000 nM and were tested in triplicate per competition assay. The assay was started by the addition of homogenate and incubated for 60 min at room temperature. Bound [^3H]imidacloprid was quantified by filtration into a second 96-well filter plate (conditioned with ice-cold 100 mM potassium phosphate buffer, pH 7.4 (including BSA 5 g litre−1)) using a commercial cell harvester (Brandel). […] Each well was then loaded with 25 μl of scintillation cocktail (Microszint-O-Filtercount, Packard) and the plate counted in a Topcount scintillation counter (Packard). Non-specific binding was determined using a final concentration of 10 μM unlabelled imidacloprid. […]

CYP9BU1 [2] = assay: Metabolism assay with recombinant P450/CPR microsomes, UPLC-MS/MS; conditions: for metabolism to 5-hydroxy form: 25 μM insecticide, 5 pmol P450, NADPH, 1 hour, 30°C
From the text: (§2) O. bicornis P450 genes and house fly NADPH-dependent cytochrome P450 reductase (CPR) (GenBank accession no. Q07994) genes were codon optimised for expression in lepidopteran cell lines, synthesized (Geneart, CA, USA) and inserted into the pDEST8 expression vector (Invitrogen). The PFastbac1 vector with no inserted DNA was used to produce a control virus. The recombinant baculovirus DNA was constructed and transfected into Trichoplusia ni (High five cells, Thermo Fisher) using the Bac-to-Bac baculovirus expression system (Invitrogen) according to the manufacturer’s instructions. The titre of the recombinant virus was determined following protocols of the supplier. High Five cells grown to a density of 2 x 10^6 cells ml^-1 were co-infected with recombinant baculoviruses containing each bee P450 and CPR with a range of MOI (multiplicity of infection) ratios to identify the optimal conditions. Control cells were co-infected with the baculovirus containing vector with no insert (ctrl-virus) and the recombinant baculovirus expressing CPR using the same MOI ratios. Ferric citrate and δ-aminolevulinic acid hydrochloride were added to a final concentration of 0.1 mM at the time of infection and 24 h after infection to compensate the low levels of endogenous heme in the insect cells. After 48 h, cells were harvested, washed with PBS, and microsomes of the membrane fraction prepared according to standard procedures and stored at −80°C [41]. Briefly, pellets were homogenised for 30 s in 0.1 M Na/K-phosphate buffer, pH 7.4 containing 1 mM EDTA and DTT and 200 mM sucrose using a Fastprep (MP Biomedicals), filtered through miracloth and centrifuged for 10 min at 680g at 4°C. The supernatant was then centrifuged for 1 h at 100,000g at 4°C, with the pellet subsequently resuspended in 0.1M Na/K-phosphate buffer pH 7.6 containing 1 mM EDTA and DTT and 10% glycerol using a Dounce tissue grinder. P450 expression and functionality was estimated by measuring CO-difference spectra in reduced samples using a Specord 200 Plus Spectrophotometer (Analytik Jena) and scanning from 500 nm to 400 nm. The protein content of samples was determined using Bradford reagent (Sigma) and bovine serum albumin (BSA) as a reference.
(§3) Metabolism of thiacloprid and imidacloprid was assessed by incubating recombinant P450/CPR (5 pmol/well) or control virus/CPR (5 pmol/well) with each insecticide (25 μM) in the presence of an NADPH regeneration system at 30±1°C, shaking, for 1 hour. […] The peak integrals were calibrated externally against a standard calibration curve.

CYP9BU2 [3] = assay: as above; conditions: for metabolism to 5-hydroxy form: 25 μM insecticide, 5 pmol P450, NADPH, 1 hour, 30°C
From the text: as §2, §3

O. bicornis [4] = assay: Sublethal dose (LD10) used for oral exposure; type: in vivo, Osmia bicornis; conditions: used as sublethal dose, supplied orally in 50% sucrose
Protocol: To examine if P450 expression in O. bicornis is induced by exposure to sublethal concentrations of neonicotinoids, imidacloprid and thiacloprid were dissolved in acetone to the highest concentration possible, before being diluted to the LD10 of imidacloprid (0.0001 μg/bee) and thiacloprid (0.01 μg/bee) with 50% sucrose (w/v) in order to limit the amount of acetone consumed by bees. Prior to commencing oral bioassays bees underwent a 24 hour ‘training’ period in the Nicot cages to enable them to learn to feed from the syringes. This was followed by a 16h starvation period to encourage subsequent feeding. 15μL of the insecticide/sucrose solution was supplied orally to the bees in disposable plastic syringes. Control bees were fed 15μL of a sucrose solution containing the same volume of acetone used to make up the insecticide/sucrose solutions. When all of the solution had been consumed the bees were fed ab libitum with a 50% sucrose solution for 24 h. After this period for each condition four replicates comprising 5 bees per replicate were snap frozen in liquid nitrogen and RNA extracted from each replicate as above. RNA was used as a template for the generation of barcoded libraries (TrueSeq RNA library preparation, Illumina) which were sequenced across two lanes of an Illumina HiSeq2500 flowcell (100 bp paired end reads). Sequencing was carried out by Earlham Institute, Norwich, UK. […]

O. bicornis [5] = assay: PBO (piperonyl butoxide) synergist bioassay; type: in vivo, Osmia bicornis; conditions: with vs without PBO pre-treatment one hour before insecticide
Protocol: as §1

[6] = tested on: transgenic Drosophila melanogaster expressing CYP9BU1; assay: Insecticide bioassay on transgenic flies expressing CYP9BU1; type: in vivo; conditions: for RR (resistance ratio): CYP9BU1 strain vs control line; for sensitivity relative to control flies (less sensitive): flies expressing CYP9BU1 vs control flies without transgene
Protocol: (§4) CYP9BU1 and CYP9BU2 were codon optimised for D. melanogaster expression and cloned into the pUASTattB plasmid (GenBank: EF362409.1). These constructs were used to create transgenic fly lines, which were then tested in insecticide bioassays against imidacloprid and thiacloprid, as described previously.

CYP9BU1 [7] = assay: as above; type: in vivo, Drosophila melanogaster; conditions: transgenic line expressing CYP9BU1, Drosophila melanogaster, in vivo; CYP9BU1 strain
Protocol: as §4

[8] = tested on: adult female O. bicornis gene expression; assay: RNAseq of bees after sublethal oral neonicotinoid exposure (P450 induction); type: in vivo, Osmia bicornis; conditions: for induction of P450 expression: 24 h after exposure to LD10; for number of genes significantly upregulated: 24 h after exposure to LD10, corrected p <0.05 vs solvent control
Protocol: To examine if P450 expression in O. bicornis is induced by exposure to sublethal concentrations of neonicotinoids, imidacloprid and thiacloprid were dissolved in acetone to the highest concentration possible, before being diluted to the LD10 of imidacloprid (0.0001 μg/bee) and thiacloprid (0.01 μg/bee) with 50% sucrose (w/v) in order to limit the amount of acetone consumed by bees. Prior to commencing oral bioassays bees underwent a 24 hour ‘training’ period in the Nicot cages to enable them to learn to feed from the syringes. This was followed by a 16h starvation period to encourage subsequent feeding. 15μL of the insecticide/sucrose solution was supplied orally to the bees in disposable plastic syringes. Control bees were fed 15μL of a sucrose solution containing the same volume of acetone used to make up the insecticide/sucrose solutions. When all of the solution had been consumed the bees were fed ab libitum with a 50% sucrose solution for 24 h. After this period for each condition four replicates comprising 5 bees per replicate were snap frozen in liquid nitrogen and RNA extracted from each replicate as above. RNA was used as a template for the generation of barcoded libraries (TrueSeq RNA library preparation, Illumina) which were sequenced across two lanes of an Illumina HiSeq2500 flowcell (100 bp paired end reads). Sequencing was carried out by Earlham Institute, Norwich, UK. To identify genes differentially expressed between control and the treatment the Tuxedo workflow was used to map with TopHat against the annotated reference genome, to estimate gene expression with Cufflinks and test for differential expression with Cuffdiff.

[9] = tested on: transgenic Drosophila melanogaster expressing CYP9BU2; assay: Insecticide bioassay on transgenic flies expressing CYP9BU2; type: in vivo; conditions: for RR (resistance ratio): CYP9BU2 strain vs control line; for sensitivity relative to control flies: flies expressing CYP9BU2 vs control flies without transgene
Protocol: as §4

CYP9BU2 [10] = assay: as above; type: in vivo, Drosophila melanogaster; conditions: transgenic line expressing CYP9BU2, Drosophila melanogaster, in vivo; CYP9BU2 strain
Protocol: as §4

[11] = tested on: Drosophila melanogaster control line; assay: in vivo; conditions: for RR (resistance ratio): Control strain (reference); for Slope (+/- SE): log-dose probit mortality, Control strain
Protocol: as §4

in vivo = conditions: in vivo; Control strain
Protocol: as §4

[12] = production of hydroxy metabolite per pmol P450

SMILES	LD50 (O. bicornis [1]; adult female bees)	toxicity classification according to U.S. EPA categories (O. bicornis [1])	final uptake through the cuticle (O. bicornis cuticle)	IC50 (O. bicornis nAChRs)	metabolism to 5-hydroxy form (CYP9BU1 [2])	metabolism to 5-hydroxy form (CYP9BU2 [3])	LD10 (O. bicornis [4])	change in sensitivity after PBO pre-treatment (O. bicornis [5])	RR (resistance ratio) [6]	sensitivity relative to control flies (less sensitive) [6]	LC50 (CYP9BU1 [7])	induction of P450 expression [8]	number of genes significantly upregulated [8]	RR (resistance ratio) [9]	sensitivity relative to control flies [9]	LC50 (CYP9BU2 [10])	RR (resistance ratio) [11]	Slope (+/- SE) [11]	LC50 (in vivo)	other results
O=[N+]([O-])NC1=NCCN1Cc1ccc(Cl)nc1 [imidacloprid]	0.046 μg/bee	highly toxic	27%	8.3 nM	metabolise these compounds to their hydroxylated forms	metabolise these compounds to their hydroxylated forms	0.0001 μg/bee	No significant difference	0.5	no significant differences in sensitivity	85.9 µg/mL (≈ 336 µM)	no P450 showed a significant increase in expression	27 genes	0.8	no significant differences in sensitivity	135 µg/mL (≈ 530 µM)	1	1.7 +/- 0.12	165 µg/mL (≈ 645 µM)	fold more sensitive to imidacloprid than thiacloprid (O. bicornis [1]; adult female bees, ratio of contact LD50): > 2,000 fold; Slope (+/- SE) ([6]; log-dose probit mortality, CYP9BU1 strain): 1.3 +/- 0.13; Slope (+/- SE) ([9]; log-dose probit mortality, CYP9BU2 strain): 1.5 +/- 0.14
N#C/N=C1\SCCN1Cc1ccc(Cl)nc1 [thiacloprid]	> 100 μg/bee	practically non-toxic	28%	2.4 nM	metabolise these compounds to their hydroxylated forms	metabolise these compounds to their hydroxylated forms	0.01 μg/bee	> 7 fold	3.8	~ 4 times	65.7 µg/mL (≈ 260 µM)	no P450 showed a significant increase in expression	16 genes	1.1	no significant resistance	17.5 µg/mL (≈ 69.2 µM)	1	1.2 +/- 0.14	17 µg/mL (≈ 67.4 µM)	mortality (O. bicornis [1]; 1 μL at 0.0001-10 μg/μL, contact): No mortality; efficiency of metabolism relative to imidacloprid (CYP9BU1 [2]; [12]): significantly greater efficiency than imidacloprid; efficiency of metabolism relative to imidacloprid (CYP9BU2 [3]; [12]): significantly greater efficiency than imidacloprid
